In paper PMC11064044, “Synthesis and Characterization of Piano-Stool Ruthenium(II)–Arene Complexes of Isatin Schiff Bases: Cytotoxicity and DNA Intercalation” (ACS Omega, 2024):

Assays:
[1] = system: HEK-293 (human embryonic kidney); test: MTT cell viability assay, HEK-293; type: cell-based
Experimental: (§1) HEPG2 (ATCC-HB-8065), MCF-7 (ATCC-CRL-3435), PC-3 (ATCC-CRL-1435), and HEK-293 (ATCC-CRL-1573) cells were purchased from American Type Culture Collection (ATCC). Human cancer cells and embryonic kidney cells were maintained in Roswell Park Memorial Institute (RPMI) media supplemented with 10% fetal bovine serum and 1% penicillin–streptomycin solution in a 37 °C incubator with 5% CO2.
(§2) The cell viability was assessed by using an MTT assay. MTT was purchased from Sigma and prepared in phosphate-buffered saline (5 mM). […] After incubation, 20 μL of MTT solution was added to each well and incubated at 37 °C for an additional 4h. Finally, the MTT solution was removed, and 200 μL of DMSO was added to each well. The absorbance was measured at 590 nm by using a spectrometer (Tecan). The IC50 values were calculated from the MTT viability data using the software CalcuSyn (Biosoft).

[2] = system: PC-3 (human prostate cancer); test: MTT cell viability assay, PC-3; type: cell-based; details: 72 h
Experimental: as §1, §2

[3] = system: MCF-7 (human breast cancer); test: MTT cell viability assay, MCF-7; type: cell-based
Experimental: as §1, §2

[4] = system: HEPG2 (hepatocellular carcinoma); test: MTT cell viability assay, HEPG2; type: cell-based, human
Experimental: as §1, §2

SMILES	IC50 ([1]; Homo sapiens, HEK293, 72 h) [µM]	IC50 ([2]; Homo sapiens) [µM]	IC50 ([3]; Homo sapiens, MCF7, 72 h) [µM]	IC50 ([4]; Homo sapiens, HepG2, 72 h) [µM]	IC50 ([1]; 72 h) [µM]	IC50 [2] [µM]	IC50 ([3]; 72 h) [µM]	IC50 ([4]; 72 h) [µM]
CCCCN1C(=O)/C(=N/c2ccccc2)c2ccccc21 [3b]	61.9 ± 0.6	58.1 ± 3.3	52.6 ± 3.1	43 ± 1.8				
CCCCN1C(=O)/C(=N/c2c(C)cc(C)cc2C)c2ccccc21 [3c]	26.9 ± 1.6	58.4 ± 2	27.2 ± 2.4	3.9 ± 0.3				
N.N.[Cl][Pt][Cl] [cisplatin, reference compound]					10.7 ± 0.8	18.5 ± 0.7	20.8 ± 2.3	22.2 ± 0.5
CCCCN1C(=O)C(=O)c2ccccc21 [compound 2, N-butylisatin]	127 ± 2.8	58.2 ± 3.2	100 ± 2.4	226.5 ± 1.5				
